According to US8987195B2 (priority 2012, dated 2015):

Target: HCV NS3/4A protease genotype 1b (Hepatitis C virus genotype 1b, UniProt P26663)
Test: HCV NS3/4A protease time-resolved fluorescence (TRF) assay, Ki against genotype 1b
Format: biochemical
Procedure: Measuring NS3/4A Inhibitory Activity (Ki) Against Genotype 1b, Against A156T Mutants and Against Genotype 3a
One assay for measuring inhibitory activity is HCV NS3 protease time-resolved fluorescence (TRF) assay as described below and in Mao et al., Anal. Biochem. 373:1-8, 2008 and International Patent Application Publication WO 2006/102087. A NS3 protease assay can be performed, for example, in a final volume of 20 μl assay buffer containing 50 mM HEPES, pH 7.5, 150 mM NaCl, 15% glycerol, 0.15% TRITON X-100, 10 mM DTT, and 0.1% PEG 8000. NS3 and NS4A protease is pre-incubated with various concentrations of inhibitors in DMSO for 30 min. The reaction is initiated by adding the TRF peptide substrate (final concentration 25 nM). NS3 mediated hydrolysis of the substrate was run for 2.5 hours at room temperature. Product fluorescence is detected using A Pherastar Plus plate reader (BMG) or Envision (Perkin Elmer Life and Analytical Sciences with excitation at 340 nm and emission at 615 nm using the appropriate delay time optimized for the europium fluorescence probe. Testing concentrations of different enzyme forms are selected to result in a signal to background ratio (S/B) of 10-30. IC50 values are derived using a standard four-parameter fit to the data. Ki values are derived from IC50 values using the following formula, IC50=Ki(1+[S]/KM), Eqn (1), where [S] is the concentration of substrate peptide in the reaction and KM is the Michaelis constant. See P. Gallinari et al., 38 BIOCHEM. 5620-32 (1999); P. Gallinari et al., 72 J. VIROL. 6758-69 (1998); M. Taliani et al., 240 ANAL. BIOCHEM. 60-67 (1996); Mao et al., Analytical Biochemistry 373: 1-8, 2008.
The assay described above was run against genotype 1b at a concentration of 0.2 nM, against A156T mutant strains at a concentration of 0.4 nM, and against genotype 3a at a concentration of 0.025 nM.

[1] = IC50 [gt-1b] (nM), NS3/4A genotype 1b, enzyme 0.2 nM, K+ salt
[2] = IC50 [gt-1b] (nM), NS3/4A genotype 1b, enzyme 0.2 nM
[3] = IC50 [gt-1b], NS3/4A protease TRF assay, genotype 1b enzyme 0.2 nM

## COc1ccc2nc(C)c3c(c2c1)CC[C@]1(C[C@H]2C(=O)N[C@]4(C(=O)NS(=O)(=O)C5(C)CC5)C[C@H]4/C=C\CCCCC[C@H](NC(=O)O[C@H](C)C(C)C)C(=O)N2C1)O3 [Example 214, (2R)-3-methylbutan-2-yl [(2R,6S,12Z,13aS,14aR,16aS)-9′-methoxy-5′-methyl-14a-{[(1-methylcyclopropyl)sulfonyl]carbamoyl}-5,16-dioxo-1,1′,2′,5,6,7,8,9,10,11,13a,14,14a,15,16,16a-hexadecahydrospiro[cyclopropa[e]pyrrolo[1,2-a][1,4]diazacyclopentadecine-2,3′-pyrano[2,3-c]quinolin]-6-yl]carbamate]
[1]
  IC50: 0.005 nM

## COc1ccc2nc(C)c3c(c2c1)CC[C@]1(C[C@H]2C(=O)N[C@]4(C(=O)NS(=O)(=O)C5(C)CC5)C[C@H]4/C=C\CCCCC[C@H](NC(=O)O[C@@H](C)C(C)C)C(=O)N2C1)O3 [Example 215, (2S)-3-methylbutan-2-yl [(2R,6S,12Z,13aS,14aR,16aS)-9′-methoxy-5′-methyl-14a-{[(1-methylcyclopropyl)sulfonyl]carbamoyl}-5,16-dioxo-1,1′,2′,5,6,7,8,9,10,11,13a,14,14a,15,16,16a-hexadecahydrospiro[cyclopropa[e]pyrrolo[1,2-a][1,4]diazacyclopentadecine-2,3′-pyrano[2,3-c]quinolin]-6-yl]carbamate]
[1]
  IC50: 0.005 nM

## Cc1nc2ccc(OC(F)(F)F)cc2c2c1O[C@@]1(C[C@H]3C(=O)N[C@]4(C(=O)NS(=O)(=O)C5(C)CC5)C[C@H]4/C=C\CCCCC[C@H](NC(=O)OC(C)(C)C)C(=O)N3C1)CC2(F)F [Example 220, tert-butyl [(2S,6S,12Z,13aS,14aR,16aS)-1′,1′-difluoro-5′-methyl-14a-{[(1-methylcyclopropyl)sulfonyl]carbamoyl}-5,16-dioxo-9′-(trifluoromethoxy)-1,1′,2′,5,6,7,8,9,10,11,13a,14,14a,15,16,16a-hexadecahydrospiro[cyclopropa[e]pyrrolo[1,2-a][1,4]diazacyclopentadecine-2,3′-pyrano[2,3-c]quinolin]-6-yl]carbamate]
[2]
  IC50: 0.033 nM

## COc1ccc2nc(C3CC3)c3c(c2c1)C(F)(F)C[C@]1(C[C@H]2C(=O)N[C@]4(C(=O)NS(=O)(=O)C5(C)CC5)C[C@H]4/C=C\CCCCC[C@H](NC(=O)OC4CCCC4)C(=O)N2C1)O3 [Example 247, cyclopentyl [(2S,6S,12Z,13aS,14aR,16aS)-5′-cyclopropyl-1′,1′-difluoro-9′-methoxy-14a-{[(1-methylcyclopropyl)sulfonyl]carbamoyl}-5,16-dioxo-1,1′,2′,5,6,7,8,9,10,11,13a,14,14a,15,16,16a-hexadecahydrospiro[cyclopropa[e]pyrrolo[1,2-a][1,4]diazacyclopentadecine-2,3′-pyrano[2,3-c]quinolin]-6-yl]carbamate]
[2]
  IC50: 0.013 nM

## Cc1nc2ccc(C(F)(F)F)cc2c2c1O[C@]1(CC2)C[C@H]2C(=O)N[C@]3(C(=O)NS(=O)(=O)C4(C)CC4)C[C@H]3/C=C\CCCCC[C@H](NC(=O)OCC(C)C)C(=O)N2C1 [Example 253, 2-methylpropyl [(2R,6S,12Z,13aS,14aR,16aS)-5′-methyl-14a-{[(1-methylcyclopropyl)sulfonyl]carbamoyl}-5,16-dioxo-9′-(trifluoromethyl)-1,1′,2′,5,6,7,8,9,10,11,13a,14,14a,15,16,16a-hexadecahydrospiro[cyclopropa[e]pyrrolo[1,2-a][1,4]diazacyclopentadecine-2,3′-pyrano[2,3-c]quinolin]-6-yl]carbamate]
[2]
  IC50: 0.014 nM

## Cc1ccc2nc(C(F)(F)F)c3c(c2c1)CC[C@]1(C[C@H]2C(=O)N[C@]4(C(=O)NS(=O)(=O)C5(C)CC5)C[C@H]4/C=C\CCCCC[C@H](NC(=O)OCC(C)(C)C)C(=O)N2C1)O3 [Example 391, 2,2-dimethylpropyl [(2R,6S,12Z,13aS,14aR,16aS)-9′-methyl-14a-{[(1-methylcyclopropyl)sulfonyl]carbamoyl}-5,16-dioxo-5′-(trifluoromethyl)-1,1′,2′,5,6,7,8,9,10,11,13a,14,14a,15,16,16a-hexadecahydrospiro[cyclopropa[e]pyrrolo[1,2-a][1,4]diazacyclopentadecine-2,3′-pyrano[2,3-c]quinolin]-6-yl]carbamate]
[3]
  IC50: 0.026 nM

## Cc1ccc2nc(C(F)(F)F)c3c(c2c1)CC[C@]1(C[C@H]2C(=O)N[C@]4(C(=O)NS(=O)(=O)C5(C)CC5)C[C@H]4/C=C\CCCCC[C@H](NC(=O)OC4CCCC4)C(=O)N2C1)O3 [Example 392, cyclopentyl [(2R,6S,12Z,13aS,14aR,16aS)-9′-methyl-14a-{[(1-methylcyclopropyl)sulfonyl]carbamoyl}-5,16-dioxo-5′-(trifluoromethyl)-1,1′,2′,5,6,7,8,9,10,11,13a,14,14a,15,16,16a-hexadecahydrospiro[cyclopropa[e]pyrrolo[1,2-a][1,4]diazacyclopentadecine-2,3′-pyrano[2,3-c]quinolin]-6-yl]carbamate]
[3]
  IC50: 0.014 nM

## Cc1ccc2nc(C(F)(F)F)c3c(c2c1)CC[C@]1(C[C@H]2C(=O)N[C@]4(C(=O)NS(=O)(=O)C5(C)CC5)C[C@H]4/C=C\CCCCC[C@H](NC(=O)OC(C)(C)C(F)(F)F)C(=O)N2C1)O3 [Example 393, 1,1,1-trifluoro-2-methylpropan-2-yl [(2R,6S,12Z,13aS,14aR,16aS)-9′-methyl-14a-{[(1-methylcyclopropyl)sulfonyl]carbamoyl}-5,16-dioxo-5′-(trifluoromethyl)-1,1′,2′,5,6,7,8,9,10,11,13a,14,14a,15,16,16a-hexadecahydrospiro[cyclopropa[e]pyrrolo[1,2-a][1,4]diazacyclopentadecine-2,3′-pyrano[2,3-c]quinolin]-6-yl]carbamate]
[3]
  IC50: 0.026 nM

## Cc1nc2ccccc2c2c1O[C@]1(CC2)C[C@H]2C(=O)N[C@]3(C(=O)NS(=O)(=O)C4(C)CC4)C[C@H]3/C=C\CCCCC[C@H](Nc3nc(C4CC4)no3)C(=O)N2C1 [Example 394, (2R,6S,12Z,13aS,14aR,16aS)-6-[(3-cyclopropyl-1,2,4-oxadiazol-5-yl)amino]-5′-methyl-N-[(1-methylcyclopropyl)sulfonyl]-5,16-dioxo-1,1′,2′,6,7,8,9,10,11,13a,14,15,16,16a-tetradecahydrospiro[cyclopropa[e]pyrrolo[1,2-a][1,4]diazacyclopentadecine-2,3′-pyrano[2,3-c]quinoline]-14a(5H)-carboxamide]
[3]
  IC50: 0.057 nM

## Cc1ccc2nc(C(F)(F)F)c3c(c2c1)CC[C@]1(C[C@H]2C(=O)N[C@]4(C(=O)NS(=O)(=O)C5(C)CC5)C[C@H]4/C=C\CCCCC[C@H](NC(=O)O[C@H](C)C(C)C)C(=O)N2C1)O3 [Example 395, (2R)-3-methylbutan-2-yl [(2R,6S,12Z,13aS,14aR,16aS)-9′-methyl-14a-{[(1-methylcyclopropyl)sulfonyl]carbamoyl}-5,16-dioxo-5′-(trifluoromethyl)-1,1′,2′,5,6,7,8,9,10,11,13a,14,14a,15,16,16a-hexadecahydrospiro[cyclopropa[e]pyrrolo[1,2-a][1,4]diazacyclopentadecine-2,3′-pyrano[2,3-c]quinolin]-6-yl]carbamate]
[3]
  IC50: 0.014 nM

## Cc1ccc2nc(C(F)(F)F)c3c(c2c1)CC[C@]1(C[C@H]2C(=O)N[C@]4(C(=O)NS(=O)(=O)C5(C)CC5)C[C@H]4/C=C\CCCCC[C@H](NC(=O)O[C@@H](C)C(C)C)C(=O)N2C1)O3 [Example 396, (2S)-3-methylbutan-2-yl [(2R,6S,12Z,13aS,14aR,16aS)-9′-methyl-14a-{[(1-methylcyclopropyl)sulfonyl]carbamoyl}-5,16-dioxo-5′-(trifluoromethyl)-1,1′,2′,5,6,7,8,9,10,11,13a,14,14a,15,16,16a-hexadecahydrospiro[cyclopropa[e]pyrrolo[1,2-a][1,4]diazacyclopentadecine-2,3′-pyrano[2,3-c]quinolin]-6-yl]carbamate]
[3]
  IC50: 0.009 nM

## [2H]C([2H])(F)Oc1ccc2nc(C)c3c(c2c1)[C@H](F)C[C@]1(C[C@H]2C(=O)N[C@]4(C(=O)NS(=O)(=O)C5(C)CC5)C[C@H]4/C=C\CCCCC[C@H](NC(=O)OC(C)(C)C)C(=O)N2C1)O3 [Example 397, tert-butyl [(1′R,2S,6S,12Z,13aS,14aR,16aS)-1′-fluoro-9′-{[fluoro(^2H2)methyl]oxy}-5′-methyl-14a-{[(1-methylcyclopropyl)sulfonyl]carbamoyl}-5,16-dioxo-1,1′,2′,5,6,7,8,9,10,11,13a,14,14a,15,16,16a-hexadecahydrospiro[cyclopropa[e]pyrrolo[1,2-a][1,4]diazacyclopentadecine-2,3′-pyrano[2,3-c]quinolin]-6-yl]carbamate]
[3]
  IC50: 0.006 nM
